Reference: publication PMC2635431 (Journal of pharmaceutical sciences, 2009)

Assays:
[1] = test system: human epidermal membrane (HEM); assay: Evaluation of direct enhancer treatment time on CS permeability of HEM; type: in vitro ADME; details: direct treatment 1, 4, 20 min; p > 0.05, t-test
[2] = test system: human epidermal membrane (HEM); assay: Passive transport of corticosterone; type: in vitro ADME; details: CS lipoidal pathway permeability vs PBS control (Eq. 3)
[3] = test system: human epidermal membrane (HEM); assay: Enhancer depletion and recovery of HEM barrier; type: in vitro ADME; details: Protocol II, enhancer depletion in PBS
[4] = Corticosterone solubility in enhancer-PBS solution relative to PBS; details: enhancer concentration of Protocol I, 37°C
[5] = experimental, from the literature; cited from earlier work

SMILES	effect of treatment time on permeability coefficients of CS [1]	Enhancement Ratio (Emax) ([2]; Protocol II)	time for HEM permeability to return to the PBS control value [3]	Enhancement Ratio (Emax) ([2]; Protocol III)	other results
CCCCCCCCCCCO [UD, Undecan-1-ol]	did not significantly affect	17 ± 2			
CCCCCCCCO [OC, 1-Octanol]			approximately 6 h	18 ± 2	
CCCCCCCCCCCCCC(=O)OC(C)C [IPM, Propan-2-yl tetradecanoate]	did not significantly affect	2.8 ± 0.2		3.3 ± 1.1	
OCCOc1ccccc1 [PHE, 2-Phenoxy-1-ethanol]			less than 2 h		
CCCCC(CC)COC(=O)c1ccccc1O (centres unmarked) [OS, 2-Ethylhexyl 2-hydroxybenzoate]	did not significantly affect	5.0 ± 3.6			
CCCCCCCCN1CCCC1=O [OP, 1-Octyl-2-pyrrolidinone]			approximately 6 h	16 ± 6	
CCCCC(CC)COC(=O)c1ccc(N(C)C)cc1 (centres unmarked) [PADO, 2-Ethylhexyl 4-(dimethylamino) benzoate]	did not significantly affect	4.1 ± 0.7		3.8 ± 1.1	
CCCCCCCC/C=C\CCCCCCCCO [OA, (Z)-Octadec-9-en-1-ol]	did not significantly affect	5.5 ± 1.5			
CCCCCCCCCCCCN1CCCC1=O [DoP, 1-Dodecyl-2-pyrrolidinone]				14 ± 6	
COc1ccc(O)c(C(C)(C)C)c1 [BHA, 1,1-Dimethylethyl-4-methoxy phenol]					CS Solubility Ratio (enhancer/PBS solution vs PBS) [4]: 1.16 ± 0.03; log Koct [5]: 3.14 ^b^53
